Source: US7045339B2, “Electron donors for chlorinated solvent source area bioremediation” (SRP Technologies, Inc., priority 2002, dated 2006)
One block for each molecule: values may come before it.

Key:
Type in all cases: physicochemical
[1] = Emulsion formation of electron donor in water; details: very little mixing, unpublished data
Description: Oleyl lactyllic acid may be just such an electron donor (confidential proprietary information). It is essentially a combination of vegetable oil and lactic acid that was developed in the food processing industry a few decades ago as an emulsifier. […] Although it has an appearance and viscosity of vegetable oil, its nature as an emulsifier causes it to react very differently with water than pure vegetable oil. When vegetable oil is used in the field as electron donor, an emulsifier such as lecithin must be added to inject it into groundwater (25). The mixture is then mixed to achieve an emulsion of a few tenths of a percent to a few percent oil. The droplet size of the emulsion may be a critical factor in its transportability (26). In order to achieve small, easily transported droplets in the emulsion, intensive mixing is required. […] This observation is consistent with its intended use in food processing. […] While this may be the most promising example on the surface, other potential electron donors will be evaluated under this proposal.

[2] = Interfacial tension between electron donor solutions and nonaqueous phase TCE (pendant drop method)
Description: (§1) Based on the field results presented in Example 1, laboratory studies were preformed to confirm that the enhanced bioavailability of TCE observed in the field was due to co-solvent or surfactant behavior resulting from the use of high concentrations of sodium lactate. Two fundamental properties used to screen the co-solvent or surfactant properties of a solution are surface tension and interfacial tension. Surface tension measures the force per unit length along the interface between a liquid and air due to its tension. When a co-solvent or surfactant is present in an aqueous liquid at increasing concentrations, the surface tension of that liquid decreases. Interfacial tension is similar to surface tension except that it measures the force per unit length along the interface between two liquid phases arising from the surface free energy. The higher the interfacial tension between two liquids, the less likely one is to dissolve into the other, and the more difficult it is for one to be transported within the other. Thus, perhaps the most significant property of co-solvents and surfactants in the context of chlorinated solvent remediation is that they decrease the interfacial tension between the aqueous phase (groundwater) and the organic nonaqueous phase so that the solubility (or mobility for order-of-magnitude decreases) of the nonaqueous phase is enhanced.
The laboratory study performed to confirm the co-solvent properties of the high concentration electron donor solution measured the surface tension of electron donor solutions at various concentrations. Next, interfacial tensions between the same electron donor solutions and nonaqueous phase TCE were measured. Two types of electron donor solutions were used. The first was different concentrations of sodium lactate, the electron donor used in Example 1. The second was various mixtures of sodium lactate and ethyl lactate. Ethyl lactate was chosen because it is a lactate-based compound that is used in some industries as a solvent. Thus it was believed ethyl lactate might further enhance the co-solvent behavior observed, while still acting as a suitable electron donor for bioremediation. It is believed that mixtures of sodium lactate and ethyl lactate have never before been used for bioremediation. Surface and interfacial tension measurements were made using the pendant drop method (M. J. Rosen, ed., Structure/Performance Relationships in Surfactants, American Chemical Society, Washington D.C. 329 (1984); R. D. Bagnall & P. A. Arundel, The Profile Area of Pendant Drops, 82 J. Phys. Chem. 898 (1978)) coupled with real-time video imaging (M. D. Herd et al., Interfacial Tensions of Microbial Surfactants Determined by Real-Time Video Imaging of Pendant Drops, Proceedings paper number SPE/DOE 24206 513–519, SPE/DOE Eighth Symposium on Enhanced Oil Recovery, Tulsa, Okla. (1992)).
The data points in the figure represent the mean interfacial tension measurement based on at least eight independent measurements. The error bars show one standard deviation. It can be seen that as electron donor concentration increases, interfacial tension generally decreases. While sodium lactate had dramatic effects in the field (see FIG. 7), it appears that the other electron donor solutions tested might increase bioavailability to an even greater extent. […]

[3] = Surface tension of electron donor solutions (pendant drop method); details: FIG. 5; for Change in surface tension: 0% ethyl lactate
Description: as §1, with “Thus, perhaps the most significant property of co-solvents and surfactants in the context of chlorinated solvent remediation is that they decrease the interfacial tension between the aqueous phase (groundwater) and the organic nonaqueous phase so that the solubility (or mobility for order-of-magnitude decreases) of the nonaqueous phase is enhanced.” left out
The laboratory study performed to confirm the co-solvent properties of the high concentration electron donor solution measured the surface tension of electron donor solutions at various concentrations. Next, interfacial tensions between the same electron donor solutions and nonaqueous phase TCE were measured. […] Surface and interfacial tension measurements were made using the pendant drop method (M. J. Rosen, ed., Structure/Performance Relationships in Surfactants, American Chemical Society, Washington D.C. 329 (1984); R. D. Bagnall & P. A. Arundel, The Profile Area of Pendant Drops, 82 J. Phys. Chem. 898 (1978)) coupled with real-time video imaging (M. D. Herd et al., Interfacial Tensions of Microbial Surfactants Determined by Real-Time Video Imaging of Pendant Drops, Proceedings paper number SPE/DOE 24206 513–519, SPE/DOE Eighth Symposium on Enhanced Oil Recovery, Tulsa, Okla. (1992)).

Emulsion formed in water [1]: forms a stable microemulsion
Molecule: oleyl lactyllic acid

Molecule: CC(O)C(=O)[O-].[Na+] (stereo not drawn) [sodium lactate]
Decrease of interfacial tension between nonaqueous TCE and the electron donor solution ([2]; high concentrations of sodium lactate): ≤ 47%
Interfacial tension as percent of the value at 0.1% sodium lactate ([2]; sodium lactate 30%, 0% ethyl lactate, FIG. 6): 47%
Decrease of interfacial tension ([2]; sodium lactate increased from 0.1 to 3%, 0% ethyl lactate, FIG. 6): about 26%
Change in surface tension ([3]; sodium lactate 0.01 to 7%): almost no change
Change in surface tension ([3]; sodium lactate 30 and 60%): dramatic decrease

Effect on the solution's surface tension ([3]; 1% and 10% ethyl lactate added to sodium lactate solutions): pronounced effect
Molecule: CCOC(=O)C(C)O (stereo not drawn) [ethyl lactate]
Tension compared with 30% sodium lactate solution with no ethyl lactate ([2]; 10% ethyl lactate mixture with sodium lactate): lower surface tensions than the 30% sodium lactate solution
Dependence of interfacial tension on sodium lactate concentration ([2]; ethyl lactate / sodium lactate mixtures, FIG. 6): relatively insensitive to sodium lactate concentration
